Consider three compounds from publication PMC6382835, “A critical evaluation of TRPA1-mediated locomotor behavior in zebrafish as a screening tool for novel anti-nociceptive drug discovery” (Scientific Reports, 2019).

Assay [1] deals with non-transfected HEK293 cells. Nature of the assay: FLIPR calcium signaling assay in non-transfected HEK293 cells (off-target effect). The assay is classed as cell-based.
For assay [2], the target named is T1, zebrafish TRPA1b (zTRPA1b) (Danio rerio, UniProt A0A8M1N2Z4).
T1 sequence (A0A8M1N2Z4 1-1120): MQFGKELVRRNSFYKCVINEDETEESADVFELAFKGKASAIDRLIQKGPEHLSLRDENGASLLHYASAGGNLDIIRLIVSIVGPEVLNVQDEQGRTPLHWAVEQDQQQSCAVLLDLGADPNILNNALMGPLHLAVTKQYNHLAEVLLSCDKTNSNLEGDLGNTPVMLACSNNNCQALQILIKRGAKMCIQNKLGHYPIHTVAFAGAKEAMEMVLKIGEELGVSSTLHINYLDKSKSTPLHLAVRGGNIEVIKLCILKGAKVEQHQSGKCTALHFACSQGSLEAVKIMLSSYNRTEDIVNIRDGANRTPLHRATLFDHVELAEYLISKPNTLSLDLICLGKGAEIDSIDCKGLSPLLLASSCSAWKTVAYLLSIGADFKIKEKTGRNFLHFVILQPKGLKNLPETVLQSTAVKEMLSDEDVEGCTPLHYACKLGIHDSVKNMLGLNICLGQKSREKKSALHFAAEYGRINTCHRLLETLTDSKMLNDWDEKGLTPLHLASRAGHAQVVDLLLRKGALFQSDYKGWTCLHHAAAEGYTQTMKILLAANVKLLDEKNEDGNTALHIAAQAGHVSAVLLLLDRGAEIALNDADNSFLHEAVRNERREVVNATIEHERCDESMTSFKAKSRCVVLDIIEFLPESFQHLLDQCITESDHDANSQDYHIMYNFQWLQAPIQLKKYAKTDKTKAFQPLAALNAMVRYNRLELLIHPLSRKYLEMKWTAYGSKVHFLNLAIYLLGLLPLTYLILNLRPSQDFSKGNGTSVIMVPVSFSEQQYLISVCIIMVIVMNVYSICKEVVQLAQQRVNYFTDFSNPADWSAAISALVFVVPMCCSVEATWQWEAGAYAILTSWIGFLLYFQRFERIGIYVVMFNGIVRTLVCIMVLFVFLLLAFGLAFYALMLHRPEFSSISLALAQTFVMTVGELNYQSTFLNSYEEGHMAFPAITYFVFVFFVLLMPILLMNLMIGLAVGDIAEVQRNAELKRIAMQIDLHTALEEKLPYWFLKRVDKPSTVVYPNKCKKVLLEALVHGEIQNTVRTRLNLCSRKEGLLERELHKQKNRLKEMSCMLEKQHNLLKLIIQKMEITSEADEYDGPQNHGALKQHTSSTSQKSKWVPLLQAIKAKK
The experiment in a line: FLIPR calcium signaling assay in zTRPA1b-transfected HEK293 cells. The format is cell-based. The note with it: for EC50: agonist calcium influx, zTRPA1b-transfected HEK293, read-out: EC50 (potency in µM). The method, then:
The cells were maintained in a 37 °C incubator with consistent 5% CO2. […] Experiments were carried out with the approval of the Institutional Biohazard Committee (#13-013-16).
Twenty-five µl calcium sensitive Fluorescent Imaging Plate Reader (FLIPR) Calcium 6 assay dye (#R8190, Molecular Devices, CA, USA) was added to each well of a 384-well plate containing HEK293 cells transiently expressing mTRPA1, zTRPA1a, and zTRPA1b, respectively. The cells were incubated for an hour prior to the recording of intracellular calcium levels in a FlexStation3 Multi-Mode Microplate Reader (#R8190, Molecular Devices) as previously described. […] During the assay, the cells were challenged by a 5x ASP7663 solution or 1% DMSO solution at the 20 seconds time point, and both solutions were diluted in calcium buffer. Relative fluorescence units (RFU) were measured for 120 seconds period by the Flexstation. […] For each specific antagonist concentration we plotted Log(dose ratio-1) against the antagonist concentration in a Schild plot. The dose ratio (A’/A) equals the EC50 of the agonist (ASP7665) in the presence of a concentration of the antagonist (A’) divided by the EC50 of the agonist in the absence of antagonist (A). The x-intercept of the Schild plot was used to identify the antagonist-receptor affinity (pA2).
All data are presented as means ± standard error of the mean (SEM). For our in vitro statistical analysis, AUC of calcium influx (RFU) was measured to plot dose-response curves, which were further analyzed by nonlinear regression analysis. Mean RFU of the first 10 seconds was used as a baseline of the AUC. EC50 values of the dose-response curves were further used to plot Schild curves, and the curves were analyzed with linear regression analysis. For the mice von Frey test, mechanical thresholds were analyzed with two-way ANOVA followed by a Bonferonni test for multiple comparison analysis. For the zebrafish behavior test, the data from the first five seconds following drug administration were excluded, as zebrafish displacement during that period was highly influenced by liquid dispensing. AUC of all curves were measured and analyzed by one-way ANOVA. The post-hoc analysis was conducted with the Tukey’s or Dunnett’s multiple comparisons unless it stated otherwise. […] For our time-course average displacement graph, we used 2nd degree polynomial smoothing for a better representation; however, we used data before smoothing for all statistical analysis and quantification. All in vitro and in vivo data were evaluated using GraphPad Prism 7 (GraphPad Software, La Jolla, CA) unless it stated otherwise.

Molecules are shown by their SMILES.

Turning to `CC(C)CN1C(=O)/C(=C/C(=O)O)c2cccc(F)c21` [ASP7663], the “pEC50 (off-target calcium response)” value in assay [1] came to 4.27 ± 0.03. In addition, the EC50 (usually the concentration giving half of the maximal effect) in assay [1] (read-out: EC50 (off-target calcium response)) was found to be 54.1 µM; in assay [2] it was 99 µM.

With `CC(C)c1ccc(NC(=O)Cn2cnc3c2c(=O)n(C)c(=O)n3C)cc1` [HC-030031], the “calcium influx by antagonist alone” value was “did not observe any calcium influx” in assay [1] and “could produce an influx of intracellular calcium” in assay [2] (316 µM, zTRPA1b-transfected cells). Moreover, the “pA2 expressed in µM” value in assay [2] (Schild plot against ASP7663-mediated calcium influx, zTRPA1b) was found to be 27.1 µM. Further, the pA2 (as a rule, a measure of antagonist potency on a negative log scale) in assay [2] (Schild plot against ASP7663-mediated calcium influx, zTRPA1b, only two antagonist doses) was 4.6 ± 0.3. For the same compound, the Schild slope in assay [2] (zTRPA1b, n = 2) came to 0.83 ± 0.05.

`C=CCN=C=S` [AITC, allyl isothiocyanate]: the EC50 in assay [2] was determined as 35.4 µM.
